# Literature values in US20070105758A1 (priority 2005, published 2007).
# Conditions: oral route in sensitive individuals
compound,measurement,value
NCCc1c[nH]cn1 [histamine],histamine concentration known to be biologically active,> 5 nM
